Measured values as given in article PMC8539695, “Promising Natural Compounds against Flavivirus Proteases: Citrus Flavonoids Hesperetin and Hesperidin” (Plants, 2021).

Tests used:
DENV2 NS2B/NS3^pro [1] = molecular target: T1, DENV2 NS2B/NS3^pro (Dengue virus type 2, UniProt P14340); test: biochemical; format: biochemical
T1 construct: tryptophan residues in the NS2B cofactor domain and in the NS3 protease domain; inferred from Ni-NTA purification and the pET-15b vector; made in house; host or cells: E. coli Lemo (DE3)
T1 sequence (P14340 with tags, fused parts or gaps I1442G/L1443G/I1444G/R1445G/T1446S/DEL1448-1472/K1473G/Q1474G/R1475G): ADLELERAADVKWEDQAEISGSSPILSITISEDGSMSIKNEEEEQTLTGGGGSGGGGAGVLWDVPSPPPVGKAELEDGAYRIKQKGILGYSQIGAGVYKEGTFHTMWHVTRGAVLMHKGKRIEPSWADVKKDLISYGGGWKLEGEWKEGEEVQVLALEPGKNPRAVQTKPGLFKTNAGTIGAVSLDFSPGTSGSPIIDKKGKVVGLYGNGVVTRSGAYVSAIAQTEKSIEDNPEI

YFV NS2B/NS3^pro [2] = molecular target: T2, YFV NS2B/NS3^pro (Yellow fever virus, UniProt Q1X881); test: biochemical; settings: for inhibition at 10 µM: read-out: Inhibition of protease activity, primary inhibition test
WNV NS2B/NS3^pro [3] = molecular target: T3, WNV NS2B/NS3^pro (West Nile virus, UniProt P06935); test: biochemical; settings: for inhibition at 10 µM: read-out: Inhibition of protease activity, primary inhibition test
T3 construct: tryptophan residues in the NS2B cofactor domain and in the NS3 protease domain; inferred from Ni-NTA purification and the pET-15b vector; made in house; host or cells: E. coli Lemo (DE3)

DENV2 NS2B/NS3^pro [4] = molecular target: T1, DENV2 NS2B/NS3^pro; test: biochemical; format: binding
YFV NS2B/NS3^pro [5] = molecular target: T2, YFV NS2B/NS3^pro; test: biochemical; format: binding
WNV NS2B/NS3^pro [6] = molecular target: T3, WNV NS2B/NS3^pro; test: biochemical; format: binding
ZIKV NS2B/NS3^pro [7] = system: ZIKV NS2B/NS3^pro; set-up: method as in PMID 33661906; settings: ZIKV NS2B/NS3pro, cited from earlier work
ZIKV NS2B/NS3^pro [8] = molecular target: ZIKV NS2B/NS3^pro; set-up: method as in PMID 33661906; settings: ZIKV NS2B/NS3pro, value ± STD; cited from earlier work

T3 sequence (P06935 1502-1679 limits assumed): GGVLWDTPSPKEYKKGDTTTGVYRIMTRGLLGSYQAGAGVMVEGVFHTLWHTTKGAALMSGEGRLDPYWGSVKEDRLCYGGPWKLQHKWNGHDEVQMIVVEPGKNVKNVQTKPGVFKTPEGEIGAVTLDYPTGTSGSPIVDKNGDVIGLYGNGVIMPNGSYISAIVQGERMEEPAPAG
T3 sequence (P06935 1424-1463 partner limits assumed): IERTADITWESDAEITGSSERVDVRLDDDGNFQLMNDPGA
T2 sequence (Q1X881 1485-1665 limits assumed): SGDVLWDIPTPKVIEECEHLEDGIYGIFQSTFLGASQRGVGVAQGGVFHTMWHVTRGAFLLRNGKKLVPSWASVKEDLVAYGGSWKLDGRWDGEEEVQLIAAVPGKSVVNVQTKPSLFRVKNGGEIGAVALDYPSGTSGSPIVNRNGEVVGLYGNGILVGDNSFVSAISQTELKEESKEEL
T2 sequence (Q1X881 1407-1446 partner limits assumed): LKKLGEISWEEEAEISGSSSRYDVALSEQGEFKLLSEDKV

Compound | Concentration that inhibited 100% of the protease activity (DENV2 NS2B/NS3^pro [1]) | IC50 (DENV2 NS2B/NS3^pro [1]) | Inhibition Mode (DENV2 NS2B/NS3^pro [1]) | LE (ligand efficiency) (DENV2 NS2B/NS3^pro [1]) | Concentration that inhibited 100% of the protease activity (YFV NS2B/NS3^pro [2]) | IC50 (YFV NS2B/NS3^pro [2]) | Inhibition Mode (YFV NS2B/NS3^pro [2]) | LE (ligand efficiency) (YFV NS2B/NS3^pro [2]) | inhibition at 10 µM (YFV NS2B/NS3^pro [2]) | Concentration that inhibited 100% of the protease activity (WNV NS2B/NS3^pro [3]) | IC50 (WNV NS2B/NS3^pro [3]) | Inhibition Mode (WNV NS2B/NS3^pro [3]) | LE (ligand efficiency) (WNV NS2B/NS3^pro [3]) | inhibition at 10 µM (WNV NS2B/NS3^pro [3]) | Kd (DENV2 NS2B/NS3^pro [4]) | Red edge excitation shift (REES) of the protease maximum fluorescence peak (DENV2 NS2B/NS3^pro [4]) | Kd (YFV NS2B/NS3^pro [5]) | Red edge excitation shift (REES) of the protease maximum fluorescence peak (YFV NS2B/NS3^pro [5]) | Kd (WNV NS2B/NS3^pro [6]) | Red edge excitation shift (REES) of the protease maximum fluorescence peak (WNV NS2B/NS3^pro [6]) | also measured
COc1ccc(C2CC(=O)c3c(O)cc(OC4O[C@H](CO[C@@H]5O[C@@H](C)[C@H](O)[C@@H](O)[C@H]5O)[C@@H](O)[C@H](O)[C@H]4O)cc3O2)cc1O (some centres unmarked) [HSD, 3′,5,7-trihydroxy-4′-methoxy-flavanone-7-rhamnoglucoside] | 140 µM | 55.7 ± 2.5 µM | noncompetitive | 0.14 | 140 µM | 67.7 ± 7.5 µM | noncompetitive | 0.13 | ~30% | 120 µM | 50.7 ± 8.3 µM | noncompetitive | 0.14 | ~30% | 20.9 ± 2.4 µM | no shift | 29.5 ± 2.8 µM | no shift | 19.5 ± 2.8 µM | no shift | –
COc1ccc(C2CC(=O)c3c(O)cc(O)cc3O2)cc1O (centres unmarked) [HST, 3′,5,7-trihydroxy-4′-methoxyflavanone] | 140 µM | 4.7 ± 0.8 µM | noncompetitive | 0.34 | 80 µM | 2.04 µM | noncompetitive | 0.36 | ~80% | 80 µM | 4.27 µM | noncompetitive | 0.34 | ~70% | 18.7 ± 2.7 µM | 11 nm | 12.3 ± 2.2 µM | 22 nm | 13.5 ± 2 µM | 15 nm | IC50 (ZIKV NS2B/NS3^pro [7]; value ± STD): 12.6 ± 1.3 µM; Inhibition Mode (ZIKV NS2B/NS3^pro [7]): noncompetitive; pIC50 (ZIKV NS2B/NS3^pro [7]): 4.90; Kd (ZIKV NS2B/NS3^pro [8]): 17.8 ± 2.9 µM
